Legend:
Assay type in all cases: biochemical
OSD3, Flag-OSD3 = molecular target: T1, OSD3, Flag-OSD3 (Oryza sativa, UniProt Q69P73); test: product detection by LC-UV-MS, yeast microsomes; conditions: 50 µM BB, 5 mM NADPH, 80 mM sodium phosphate pH 7.0, 5 mM DTT, 30 °C
T1 construct: gene Os09g0441400; Flag fusion in pESC-URA, microsomes of yeast strain WAT11
T1 sequence (Q69P73 1-514): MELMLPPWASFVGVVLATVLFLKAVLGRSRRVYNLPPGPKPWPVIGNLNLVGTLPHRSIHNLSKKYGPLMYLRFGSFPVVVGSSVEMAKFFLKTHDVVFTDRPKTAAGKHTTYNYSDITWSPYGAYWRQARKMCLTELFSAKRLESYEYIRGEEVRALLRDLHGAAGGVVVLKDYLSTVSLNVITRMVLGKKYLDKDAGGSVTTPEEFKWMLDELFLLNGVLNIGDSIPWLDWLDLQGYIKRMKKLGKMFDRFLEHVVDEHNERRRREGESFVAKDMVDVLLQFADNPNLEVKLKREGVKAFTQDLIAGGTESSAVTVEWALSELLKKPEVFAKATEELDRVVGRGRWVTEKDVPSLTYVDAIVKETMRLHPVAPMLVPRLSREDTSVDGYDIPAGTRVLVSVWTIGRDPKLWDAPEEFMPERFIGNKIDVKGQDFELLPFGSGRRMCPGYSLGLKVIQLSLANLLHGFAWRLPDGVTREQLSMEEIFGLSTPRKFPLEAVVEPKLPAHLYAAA

AIM1 (OsCHD), MBP-AIM1 = molecular target: T2, AIM1 (OsCHD), MBP-AIM1 (Oryza sativa, UniProt Q8W1L6); test: product detection by LC-UV-MS; conditions: 0.5 mM CA-CoA, 1 mM NAD+, 100 mM Tris-HCl pH 7.5, MgCl2, KCl, pyruvate / lactate dehydrogenase, 30 °C
T2 construct: gene MFP; CDS from rice cDNA in pMAL-c2X, MBP fusion, E. coli BL21 (DE3), amylose resin
T2 sequence (Q8W1L6 1-726): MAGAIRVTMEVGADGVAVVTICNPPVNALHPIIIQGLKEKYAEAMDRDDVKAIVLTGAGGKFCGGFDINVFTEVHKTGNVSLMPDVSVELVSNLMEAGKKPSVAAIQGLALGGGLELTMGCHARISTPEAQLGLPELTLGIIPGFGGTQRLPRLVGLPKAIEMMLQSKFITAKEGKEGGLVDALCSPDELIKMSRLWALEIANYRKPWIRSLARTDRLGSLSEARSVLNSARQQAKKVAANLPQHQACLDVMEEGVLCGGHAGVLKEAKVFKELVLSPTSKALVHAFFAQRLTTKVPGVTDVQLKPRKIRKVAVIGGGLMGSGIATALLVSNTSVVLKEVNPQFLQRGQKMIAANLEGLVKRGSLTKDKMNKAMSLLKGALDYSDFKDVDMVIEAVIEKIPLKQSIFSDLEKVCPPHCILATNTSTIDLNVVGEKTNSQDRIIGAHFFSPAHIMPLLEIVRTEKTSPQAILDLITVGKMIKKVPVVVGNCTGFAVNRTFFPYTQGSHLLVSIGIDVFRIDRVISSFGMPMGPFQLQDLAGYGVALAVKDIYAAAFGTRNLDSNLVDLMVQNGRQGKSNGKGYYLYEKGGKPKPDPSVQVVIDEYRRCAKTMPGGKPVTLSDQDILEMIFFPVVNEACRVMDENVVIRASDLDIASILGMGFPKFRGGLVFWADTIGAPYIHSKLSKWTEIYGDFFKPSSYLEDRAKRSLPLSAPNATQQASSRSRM

PhCHD, MBP-PhCHD = molecular target: T3, PhCHD, MBP-PhCHD (Petunia x hybrida, UniProt J9YIZ4); test: product detection by LC-UV-MS; conditions: positive control; AIM1 assay conditions, 0.5 mM CA-CoA, 1 mM NAD+, Tris-HCl pH 7.5, 30 °C
T3 construct: gene CHD; synthesized gene in pMAL-c5X, MBP fusion, E. coli BL21 (DE3), amylose resin
T3 sequence (J9YIZ4 1-724): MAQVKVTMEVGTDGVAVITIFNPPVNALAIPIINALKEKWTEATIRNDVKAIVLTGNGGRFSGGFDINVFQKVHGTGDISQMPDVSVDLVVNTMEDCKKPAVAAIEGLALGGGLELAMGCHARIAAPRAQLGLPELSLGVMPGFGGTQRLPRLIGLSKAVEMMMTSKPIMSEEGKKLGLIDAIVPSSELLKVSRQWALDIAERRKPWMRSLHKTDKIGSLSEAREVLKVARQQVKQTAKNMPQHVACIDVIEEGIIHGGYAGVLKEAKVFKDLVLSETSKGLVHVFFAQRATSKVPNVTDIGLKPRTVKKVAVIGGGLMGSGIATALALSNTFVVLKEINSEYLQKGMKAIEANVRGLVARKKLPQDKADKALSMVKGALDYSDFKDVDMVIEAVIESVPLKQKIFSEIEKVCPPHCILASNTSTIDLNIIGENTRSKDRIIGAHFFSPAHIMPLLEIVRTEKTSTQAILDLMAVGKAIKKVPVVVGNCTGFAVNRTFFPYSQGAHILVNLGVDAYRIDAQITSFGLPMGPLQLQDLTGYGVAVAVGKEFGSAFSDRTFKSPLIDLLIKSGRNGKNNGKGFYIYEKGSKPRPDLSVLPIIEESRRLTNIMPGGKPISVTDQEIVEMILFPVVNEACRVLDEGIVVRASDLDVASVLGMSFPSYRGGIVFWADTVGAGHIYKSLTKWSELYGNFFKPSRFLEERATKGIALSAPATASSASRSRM

Row | Structure (SMILES) | product detection by LC-UV-MS, yeast microsomes (OSD3, Flag-OSD3) | product detection by LC-UV-MS (AIM1 (OsCHD), MBP-AIM1) | product detection by LC-UV-MS (PhCHD, MBP-PhCHD)
1 | O=C(OCc1ccccc1)c1ccccc1 [benzyl benzoate] | OSD3 acts as a benzyl benzoate 2-hydroxylase (BB2H) to catalyse the hydroxylation of BB | – | –
2 | CC(C)(COP(=O)(O)OP(=O)(O)OC[C@H]1O[C@@H](n2cnc3c(N)ncnc32)[C@H](O)[C@@H]1OP(=O)(O)O)[C@@H](O)C(=O)NCCC(=O)NCCSC(=O)/C=C/c1ccccc1 [cinnamoyl-CoA] | – | AIM1 functions as a CA-CoA hydratase-dehydrogenase for converting CA-CoA to BAc-CoA | The MBP–PhCHD enzyme was used as a positive control
3 | CC(C)(COP(=O)(O)OP(=O)(O)OC[C@H]1O[C@@H](n2cnc3c(N)ncnc32)[C@H](O)[C@@H]1OP(=O)(O)O)[C@@H](O)C(=O)NCCC(=O)NCCSC(=O)CC(=O)c1ccccc1 [benzoylacetyl-CoA] | – | confirming the product of AIM1 as BAc-CoA | used it to produce a BAc-CoA standard
4 | O=C(OCc1ccccc1)c1ccccc1O [benzyl salicylate] | to catalyse the hydroxylation of BB, yielding BS | – | –

Reference: publication PMC12408352, “Complete biosynthesis of salicylic acid from phenylalanine in plants” (Nature, 2025)
